Measured values from PMC12621043, “Un-LOK-ing a New Approach for Conformational Selective Targeting of STK10 (LOK)” (ACS Medicinal Chemistry Letters, 2025).

Legend:
STK10 = target: T1, STK10 (Homo sapiens, UniProt O94804); experiment: DSF Tm panel; assay type: binding; conditions: 10 μM compound
T1 construct: purchased in-house DSF kinase panel (SGC-style construct names; the trailing letter is the construct ID)

STK3 (STK3A) = target: T2, STK3 (STK3A) (Homo sapiens, UniProt Q13188); experiment: DSF Tm panel; assay type: binding; conditions: 10 μM compound
T2 construct: purchased in-house DSF kinase panel (SGC-style construct names; the trailing letter is the construct ID)
T2 sequence (Q13188 16-313): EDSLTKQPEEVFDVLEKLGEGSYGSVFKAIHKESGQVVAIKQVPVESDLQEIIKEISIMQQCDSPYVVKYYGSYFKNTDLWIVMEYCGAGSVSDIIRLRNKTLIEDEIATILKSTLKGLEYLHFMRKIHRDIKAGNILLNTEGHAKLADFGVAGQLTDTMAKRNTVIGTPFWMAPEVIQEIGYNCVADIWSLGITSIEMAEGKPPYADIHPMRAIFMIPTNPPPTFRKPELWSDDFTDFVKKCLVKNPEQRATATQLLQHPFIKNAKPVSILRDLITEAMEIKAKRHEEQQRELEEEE

MAPK15A (MAPK15HSD) = target: T3, MAPK15A (MAPK15HSD) (Homo sapiens, UniProt Q8TD08); experiment: DSF Tm panel; assay type: binding; conditions: 10 μM compound
T3 sequence (Q8TD08 13-304 limits assumed): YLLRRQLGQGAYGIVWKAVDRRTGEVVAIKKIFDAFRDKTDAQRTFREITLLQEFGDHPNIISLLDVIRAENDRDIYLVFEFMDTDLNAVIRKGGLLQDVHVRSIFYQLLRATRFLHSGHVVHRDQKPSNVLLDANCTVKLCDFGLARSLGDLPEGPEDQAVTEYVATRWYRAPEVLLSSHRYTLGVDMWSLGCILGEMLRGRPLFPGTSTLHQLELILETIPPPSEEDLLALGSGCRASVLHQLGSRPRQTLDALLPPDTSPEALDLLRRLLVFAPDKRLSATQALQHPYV

MAP2K6A = target: T4, MAP2K6A (Homo sapiens, UniProt P52564); experiment: DSF Tm panel; assay type: binding; conditions: 10 μM compound
T4 construct: purchased in-house DSF kinase panel (SGC-style construct names; the trailing letter is the construct ID)
T4 sequence (P52564 53-314): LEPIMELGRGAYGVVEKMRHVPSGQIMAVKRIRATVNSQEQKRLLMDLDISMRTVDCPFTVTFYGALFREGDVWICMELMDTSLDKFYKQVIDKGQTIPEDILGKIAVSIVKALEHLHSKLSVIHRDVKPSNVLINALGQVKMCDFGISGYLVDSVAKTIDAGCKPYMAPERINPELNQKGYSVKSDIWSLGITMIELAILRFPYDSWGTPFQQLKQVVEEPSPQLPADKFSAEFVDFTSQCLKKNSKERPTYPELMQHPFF

DAPK1 (DAPK1A) = target: T5, DAPK1 (DAPK1A) (Homo sapiens, UniProt P53355); experiment: DSF Tm panel; assay type: binding; conditions: 10 μM compound
T5 construct: purchased in-house DSF kinase panel (SGC-style construct names; the trailing letter is the construct ID)
T5 sequence (P53355 1-285): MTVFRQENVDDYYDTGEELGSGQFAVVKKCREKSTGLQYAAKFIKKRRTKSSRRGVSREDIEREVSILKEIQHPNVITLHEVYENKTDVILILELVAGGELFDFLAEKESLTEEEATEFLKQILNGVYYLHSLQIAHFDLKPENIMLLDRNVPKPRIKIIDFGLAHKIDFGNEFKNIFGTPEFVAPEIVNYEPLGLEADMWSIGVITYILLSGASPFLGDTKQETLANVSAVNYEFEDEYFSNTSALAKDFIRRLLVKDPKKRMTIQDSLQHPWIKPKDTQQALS

PIM1 (PIM1A) = target: T6, PIM1 (PIM1A) (Homo sapiens, UniProt P11309); experiment: DSF Tm panel; assay type: binding; conditions: 10 μM compound
T6 construct: purchased in-house DSF kinase panel (SGC-style construct names; the trailing letter is the construct ID)
T6 sequence (P11309 whole entry): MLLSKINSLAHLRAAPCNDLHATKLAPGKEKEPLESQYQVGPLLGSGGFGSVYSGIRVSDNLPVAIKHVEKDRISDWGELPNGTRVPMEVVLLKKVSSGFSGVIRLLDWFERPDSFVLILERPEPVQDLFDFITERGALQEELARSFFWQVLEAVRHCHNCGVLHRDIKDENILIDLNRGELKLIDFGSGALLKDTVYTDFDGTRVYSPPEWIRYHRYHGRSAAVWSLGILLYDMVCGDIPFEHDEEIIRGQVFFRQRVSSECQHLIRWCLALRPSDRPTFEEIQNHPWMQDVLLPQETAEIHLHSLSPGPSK

EPHA2 (EPHA2A) = target: T7, EPHA2 (EPHA2A) (Homo sapiens, UniProt P29317); experiment: DSF Tm panel; assay type: binding; conditions: 10 μM compound
T7 construct: purchased in-house DSF kinase panel (SGC-style construct names; the trailing letter is the construct ID)
T7 sequence (P29317 596-900): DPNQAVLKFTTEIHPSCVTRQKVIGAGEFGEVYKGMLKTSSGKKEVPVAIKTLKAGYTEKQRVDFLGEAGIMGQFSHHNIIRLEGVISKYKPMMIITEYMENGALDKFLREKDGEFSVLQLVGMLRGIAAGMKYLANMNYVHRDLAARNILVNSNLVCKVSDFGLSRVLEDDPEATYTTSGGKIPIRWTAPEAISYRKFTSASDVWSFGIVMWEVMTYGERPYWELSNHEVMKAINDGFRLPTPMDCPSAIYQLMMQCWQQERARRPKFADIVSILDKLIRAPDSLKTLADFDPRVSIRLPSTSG

OSR1A = target: T8, OSR1A (Homo sapiens, UniProt O95747); experiment: DSF Tm panel; assay type: binding; conditions: 10 μM compound
T8 construct: purchased in-house DSF kinase panel (SGC-style construct names; the trailing letter is the construct ID)
T8 sequence (O95747 17-291): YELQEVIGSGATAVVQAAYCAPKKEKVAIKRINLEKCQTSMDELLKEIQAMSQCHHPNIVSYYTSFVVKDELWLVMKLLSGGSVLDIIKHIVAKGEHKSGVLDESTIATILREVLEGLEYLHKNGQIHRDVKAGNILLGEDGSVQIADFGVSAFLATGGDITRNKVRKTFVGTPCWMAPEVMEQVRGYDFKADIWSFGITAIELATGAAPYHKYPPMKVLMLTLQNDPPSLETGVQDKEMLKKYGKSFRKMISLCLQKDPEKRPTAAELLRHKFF

NEK1A = target: T9, NEK1A (Homo sapiens, UniProt Q96PY6); experiment: DSF Tm panel; assay type: binding; conditions: 10 μM compound
T9 construct: purchased in-house DSF kinase panel (SGC-style construct names; the trailing letter is the construct ID)
T9 sequence (Q96PY6 1-328): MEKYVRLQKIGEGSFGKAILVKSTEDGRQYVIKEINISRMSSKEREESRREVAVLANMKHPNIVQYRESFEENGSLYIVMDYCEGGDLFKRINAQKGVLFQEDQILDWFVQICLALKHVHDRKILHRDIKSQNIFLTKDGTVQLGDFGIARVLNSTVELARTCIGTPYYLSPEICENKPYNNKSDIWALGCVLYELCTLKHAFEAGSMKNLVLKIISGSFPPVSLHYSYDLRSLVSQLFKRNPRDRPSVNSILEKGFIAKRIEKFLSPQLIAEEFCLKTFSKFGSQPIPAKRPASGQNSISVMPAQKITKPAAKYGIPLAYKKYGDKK

MAPK13A = target: T10, MAPK13A (Homo sapiens, UniProt O15264); experiment: DSF Tm panel; assay type: binding; conditions: 10 μM compound
T10 construct: purchased in-house DSF kinase panel (SGC-style construct names; the trailing letter is the construct ID)
T10 sequence (O15264 1-365): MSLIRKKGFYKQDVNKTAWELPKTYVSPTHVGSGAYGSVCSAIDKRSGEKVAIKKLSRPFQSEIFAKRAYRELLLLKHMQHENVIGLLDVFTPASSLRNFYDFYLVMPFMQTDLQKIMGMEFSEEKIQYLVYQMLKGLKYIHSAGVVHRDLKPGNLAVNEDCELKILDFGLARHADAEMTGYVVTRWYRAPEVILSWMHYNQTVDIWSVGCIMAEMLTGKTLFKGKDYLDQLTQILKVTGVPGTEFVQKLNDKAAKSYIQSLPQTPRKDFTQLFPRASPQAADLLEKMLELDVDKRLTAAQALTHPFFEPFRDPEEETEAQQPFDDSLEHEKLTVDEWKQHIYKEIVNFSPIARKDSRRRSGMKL

AKT3A = target: T11, AKT3A (Homo sapiens, UniProt Q9Y243); experiment: DSF Tm panel; assay type: binding; conditions: 10 μM compound
T11 construct: purchased in-house DSF kinase panel (SGC-style construct names; the trailing letter is the construct ID)
T11 sequence (Q9Y243 148-479): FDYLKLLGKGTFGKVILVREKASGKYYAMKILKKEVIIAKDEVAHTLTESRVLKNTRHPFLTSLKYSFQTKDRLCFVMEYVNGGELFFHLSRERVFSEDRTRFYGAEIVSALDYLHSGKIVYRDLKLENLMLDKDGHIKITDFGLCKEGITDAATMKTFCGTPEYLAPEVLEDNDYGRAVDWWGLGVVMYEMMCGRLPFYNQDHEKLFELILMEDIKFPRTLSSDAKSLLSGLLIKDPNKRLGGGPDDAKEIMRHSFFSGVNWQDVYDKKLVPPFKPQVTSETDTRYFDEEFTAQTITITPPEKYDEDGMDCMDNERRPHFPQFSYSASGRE

SLK [1] = target: T12, SLK (Homo sapiens, UniProt Q9H2G2); experiment: PhosphoSens in vitro activity assay; assay type: biochemical; conditions: ATP 150 μM
SLK [2] = target: T12, SLK; experiment: DSF Tm panel; assay type: binding; parameters: purchased in-house DSF kinase panel (SGC-style construct names; the trailing letter is the construct ID); conditions: 10 μM compound

T1 sequence (O94804 18-317 limits assumed): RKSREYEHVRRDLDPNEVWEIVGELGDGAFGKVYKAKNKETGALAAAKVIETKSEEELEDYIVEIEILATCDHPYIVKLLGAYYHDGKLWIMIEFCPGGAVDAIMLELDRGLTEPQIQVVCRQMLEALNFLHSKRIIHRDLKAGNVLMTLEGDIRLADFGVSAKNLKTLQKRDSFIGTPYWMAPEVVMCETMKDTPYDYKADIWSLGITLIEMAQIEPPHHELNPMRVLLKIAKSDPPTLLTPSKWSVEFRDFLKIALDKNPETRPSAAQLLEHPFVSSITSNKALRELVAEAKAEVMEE

Row | Compound | ΔTm at 10 µM (STK10) [°C] | ΔTm at 10 µM (STK3 (STK3A)) [°C] | ΔTm at 10 µM (MAP2K6A) [°C] | ΔTm at 10 µM (DAPK1 (DAPK1A)) [°C] | ΔTm at 10 µM (PIM1 (PIM1A)) [°C] | ΔTm at 10 µM (EPHA2 (EPHA2A)) [°C] | ΔTm at 10 µM (OSR1A) [°C] | ΔTm at 10 µM (NEK1A) [°C] | ΔTm at 10 µM (MAPK13A) [°C] | ΔTm at 10 µM (AKT3A) [°C] | IC50 (SLK [1]) [µM] | ΔTm at 10 µM (SLK [2]) [°C] | ΔTm STK10 (STK10; 10 µM) | ΔTm at 10 µM (MAPK15A (MAPK15HSD)) [°C]
1 | O=C(NCc1cccc(Cl)c1)Nc1ccc2cc1OCCOCCNc1ccn3ncc-2c3n1 [compound 18] | 9.4 | 8 | 1.2 | 0.3 | 3.2 | 0.6 | 1.7 | 0.2 | 0.7 | -0.4 | 5.93 ± 0.76 | 4.7 | – | 2.3
2 | Cc1cc(Br)ccc1CNC(=O)Nc1ccc2cc1OCCOCCNc1ccn3ncc-2c3n1 [compound 24] | 8.3 | 3.8 | 0.6 | -0.3 | 0.5 | 0.2 | 1.6 | -0.4 | -0.4 | 0.3 | 5.35 ± 1.36 | 2.9 | – | 0.7
3 | O=C(NCc1ccccc1Cl)Nc1ccc2cc1OCCOCCNc1ccn3ncc-2c3n1 [compound 17] | 8.5 | 6.2 | 0.9 | 0.1 | 1.5 | 0.5 | 0.7 | 0.2 | 0.5 | -0.3 | 6.83 ± 1.58 | 4.8 | – | 6
4 | Cc1ccc(F)cc1CNC(=O)Nc1ccc2cc1OCCOCCNc1ccn3ncc-2c3n1 [compound 26] | 9.2 | 4.1 | 0.7 | 0.2 | 1 | 0.3 | 1.2 | -0.4 | -0.2 | 1.8 | 9.8 ± 2.41 | 3.2 | – | 2.4
5 | O=C(NCc1ccc(Cl)cc1Cl)Nc1ccc2cc1OCCOCCNc1ccn3ncc-2c3n1 [compound 20] | 9.6 | 8 | 1.1 | 0.2 | 3 | 0.4 | 1.8 | 0.7 | 0.4 | 0.4 | 7.44 ± 1.64 | 5.8 | – | 1.3
6 | Cc1cc(Cl)ccc1CNC(=O)Nc1ccc2cc1OCCOCCNc1ccn3ncc-2c3n1 [compound 23] | 11.1 | 9.1 | 0.4 | 0.1 | 2.3 | 0.5 | 0.8 | 0.9 | 0.3 | 0.9 | 3.43 ± 1.12 | 3.5 | – | 0.8
7 | O=C(NCc1ccccc1C(F)(F)F)Nc1ccc2cc1OCCOCCNc1ccn3ncc-2c3n1 [compound 27] | 10.2 | 4.7 | 1.2 | 0.1 | 1.1 | 0.2 | 2.1 | -0.4 | -0.5 | -0.1 | 2.74 ± 0.89 | 4.2 | – | 2.4

More lines, main results first:

Row | ΔTm at 10 µM (STK10) [°C] | ΔTm at 10 µM (STK3 (STK3A)) [°C] | ΔTm at 10 µM (MAP2K6A) [°C] | ΔTm at 10 µM (DAPK1 (DAPK1A)) [°C] | ΔTm at 10 µM (PIM1 (PIM1A)) [°C] | ΔTm at 10 µM (EPHA2 (EPHA2A)) [°C] | ΔTm at 10 µM (OSR1A) [°C] | ΔTm at 10 µM (NEK1A) [°C] | ΔTm at 10 µM (MAPK13A) [°C] | ΔTm at 10 µM (AKT3A) [°C] | IC50 (SLK [1]) [µM] | ΔTm at 10 µM (SLK [2]) [°C] | ΔTm STK10 (STK10; 10 µM) | Compound | ΔTm at 10 µM (MAPK15A (MAPK15HSD)) [°C]
8 | 9.9 | 5.1 | 1.1 | 0.4 | 1 | 0.1 | 2.2 | 0 | -0.5 | 0.4 | – | 3.1 | – | O=C(NCc1ccc(C(F)(F)F)cc1)Nc1ccc2cc1OCCOCCNc1ccn3ncc-2c3n1 [compound 28] | 0.5
9 | 7.5 | 3.4 | 0.7 | -0.1 | 1 | 0.4 | 0.9 | -0.3 | 0.02 | 0.3 | 17.1 ± 2.86 | 2.5 | – | COc1ccccc1CNC(=O)Nc1ccc2cc1OCCOCCNc1ccn3ncc-2c3n1 [compound 29] | 3.3
10 | 3.7 | 3.3 | 0.4 | 0.7 | 2.4 | 0.6 | 0 | 0.4 | 0.4 | 0 | – | 3.3 | – | CN1CCN(C(=O)Nc2ccc3cc2OCCOCCNc2ccn4ncc-3c4n2)CC1 [compound 35] | 2
11 | 5.6 | 3.6 | 0.8 | 0.5 | 0.6 | 0.3 | 1.2 | -0.4 | -0.3 | 0.4 | > 20 | 1.6 | – | C[C@H](NC(=O)Nc1ccc2cc1OCCOCCNc1ccn3ncc-2c3n1)c1ccccc1 [compound 34] | 2.1
12 | 7.6 | 4.7 | 1 | 0.4 | 1.7 | 0.3 | 1.7 | -0.4 | -0.3 | 0.8 | 11 ± 2.68 | 3.6 | – | COc1ccc(CNC(=O)Nc2ccc3cc2OCCOCCNc2ccn4ncc-3c4n2)cc1F [compound 32] | 2.5
13 | 6 | 4.4 | 1.2 | 0.3 | 2 | 0.4 | 1.3 | -0.4 | -1.3 | 1.6 | – | – | 6,7 °C | COc1ccc(CNC(=O)Nc2ccc3cc2OCCOCCNc2ccn4ncc-3c4n2)cc1 [compound 31] | 4.1
